According to US11977068B2, “Method for testing ecotoxicity of disinfection by-products” (priority 2020, dated 2024):

Columns and labels:
brine shrimp [1] = experiment: Chronic toxicity test on second-instar brine shrimp (survival/mortality)
Description: (§1) S1, anhydrous freeze-dried eggs of a brine shrimp are hatched in artificial seawater to obtain a first-instar brine shrimp, where, a hatching temperature is (26±1)° C., the hatching is performed under a continuous aeration for a hatching time of (10-24) h, and an aeration gas source is air. After the hatching is finished, the first-instar brine shrimp and non-hatched brine shrimp eggs are separated immediately, and the first-instar brine shrimp is placed in the artificial seawater. The brine shrimp at different life stages may have different tolerance to toxicity, and therefore, a separation of the brine shrimp at different instars can avoid the instability of experimental results. S2, the first-instar brine shrimp is cultured in a light incubator for 24 h to obtain a second-instar brine shrimp, where, a culture temperature is (26±1)° C., a light time and a dark time are respectively continuous 12 h, and a light intensity in the light incubator is (1,000-3,000) Lux. S3. First, the second-instar brine shrimp is pre-placed in a water sample to be tested containing toxic substances and exposed for a predetermined time to enable the artificial seawater carried by the second-instar brine shrimp to mix uniformly with the water sample to be tested, and then the second-instar brine shrimp is put into a culture plate containing the water sample to be tested for an acute toxicity test with a time end-point of (42-54) h and a chronic toxicity test with a time end-point of (12-16) days. After the time end-point of the toxicity test is reached, the culture plate is slightly vibrated to observe the survival of the brine shrimp in each well. […] A mortality rate of the brine shrimp is obtained to calculate the toxicity of the water sample to the brine shrimp.
The remaining solution in each brown bottle is poured into a clean 150 mm crystallization dish. […] The culture plate is cultured in light. […] The time difference of transferring brine shrimps within and between groups should be shortened as far as possible to avoid the influence of excessive time difference on brine shrimp growth.

[2] = Acute toxicity test on second-instar brine shrimp (survival/mortality); conditions: brine shrimp (Artemia), in vivo, other: immersion in the water sample in culture wells
Description: as §1
(§2) Hatching of a brine shrimp: 3-5 g of anhydrous freeze-dried eggs of the brine shrimp is put into a 1,500 mL beaker containing 1,200 mL of seawater. The opening of the beaker is sealed with aluminum foil and the beaker is placed in a constant temperature water bath at (26±1)° C. A small air pump is used to blow air for aeration and hatching for 12 h. After the hatching is finished, the first-instar brine shrimp is randomly picked out with a Pasteur pipette immediately and placed in a 150 mm crystallization dish containing sufficient seawater.
(§3) Culture of the brine shrimp: the first-instar brine shrimp is cultured in a light incubator for 24 h. The conditions in the light incubator are as follows: a temperature is (25±1)° C., a light intensity is 1,000 Lux, and a light time and a dark time are respectively continuous 12 h.
(§4) Acute toxicity test: 150 mL of each water sample to be tested is put into a brown bottle, four groups of the water samples with different concentrations of IAM are added into a 12-well culture plate with a pipette, with 2.5 mL of liquid in each well, and each 3 wells is an experimental group with the same concentration of the water samples. The remaining solution in each brown bottle is poured into a clean 150 mm crystallization dish. At least 30 second-instar brine shrimps are transferred into 100-150 mL of the water sample to be tested at one time by the Pasteur pipette in the crystallizing dish, respectively. The second-instar brine shrimps that have been exposed to the solution are transferred by the Pasteur pipette to the culture wells with 10 second-instar brine shrimps in each well. The culture plate is cultured in light. The survival of the brine shrimps in each well is observed after 48 h. The time difference of transferring brine shrimps within and between groups should be shortened as far as possible to avoid the influence of excessive time difference on brine shrimp growth.

brine shrimp [3] = experiment: as above; conditions: for minimum effective concentration (defined as the concentration causing 20% death): second-instar brine shrimp
Description: as §1, §2, §3, §4

| SMILES | mortality rate (brine shrimp [1]; 544.5 μM (acute minimum effective concentration), 14 days exposure) [%] | survival rate of brine shrimp (brine shrimp [1]; 544.5 μM, 14 days exposure) | LC50 at 48 h [2] [µM] | impact on the survival of brine shrimp in a short period (brine shrimp [3]; 544.5 μM, 48 h) | minimum effective concentration (defined as the concentration causing 20% death) (brine shrimp [3]; 48 h exposure, fitted from FIG. 2 data) [µM] | mortality rate (brine shrimp [1]; 59.588 μM (acute minimum effective concentration), 16 days exposure) [%] | survival rate of brine shrimp (brine shrimp [1]; 59.588 μM, 16 days exposure) | LC50 at 54 h [2] [µM] | impact on the survival of brine shrimp in a short period (brine shrimp [3]; 59.588 μM, 54 h) | minimum effective concentration (defined as the concentration causing 20% death) (brine shrimp [3]; 54 h exposure, fitted from FIG. 3 data) [µM] |
| --- | --- | --- | --- | --- | --- | --- | --- | --- | --- | --- |
| NC(=O)CI [IAM, iodoacetamide] | 100 | 0 | 557 | does not cause significant impact on the survival | 544.5 | – | – | – | – | – |
| O=C(O)CI [IAA, iodoacetic acid] | – | – | – | – | – | 100 | 0 | 1050 | does not cause significant impact on the survival | 59.588 |
